# Laboratory results published in ChEMBL document CHEMBL5096189, “The Mur Enzymes Chink in the Armour of Mycobacterium tuberculosis cell wall” (Eur J Med Chem, 2021).
# Where “and” joins values, the source holds several entries; their conditions need not be identical. Equal values may be shown once.
# Legend:
# [1] = tested on: RAW264.7; experiment: Cytotoxicity against mouse RAW264.7 cells assessed as cell growth inhibition incubated for 48 hrs by resazurin staining based fluorometric analysis; format: functional; settings: RAW264.7, 48 h
# [2] = Selectivity index, ratio of IC50 for cytotoxicity against mouse RAW264.7 cells to MIC for antitubercular activity against Mycobacterium tuberculosis H37Rv ATCC 27294; format: toxicity, cell-based; settings: for selectivity ratio: RAW264.7 cells, read-out: Selectivity Index
# [3] = Inhibition of recombinant Mycobacterium tuberculosis MurE expressed in Escherichia coli BL21(DE3) cells using UDP-MurNAc-dipeptide as substrate incubated for 30 mins by phosphate release based colorimetric assay; format: cell-based
# [4] = Inhibition of Mycobacterium tuberculosis MurE expressed in Escherichia coli BL21(DE3) cells using UDP-MurNAc-dipeptide as substrate incubated for 30 mins by HPLC analysis
# [5] = tested on: Mycobacterium tuberculosis; experiment: Antitubercular activity against Mycobacterium tuberculosis H37Rv ATCC 27294 assessed as bacterial growth inhibition; format: functional
# [6] = tested on: Mycobacterium tuberculosis; experiment: Antitubercular activity against Mycobacterium tuberculosis H37Rv ATCC 27294 assessed as bacterial growth inhibition incubated for 6 days by MTT assay; format: functional; settings: H37Rv ATCC 27294, 144 h, time 6 day
# [7] = Inhibition of recombinant Mycobacterium tuberculosis MurE expressed in Pseudomonas putida KT2442 using UDPMurNAc-L-Ala-D-Glu as substrate incubated for 30 mins by HPLC analysis
# [8] = tested on: Mycobacterium tuberculosis; experiment: Antimycobacterial activity against Mycobacterium tuberculosis H37Rv ATCC 27294 assessed as inhibition of bacterial growth incubated for 2 weeks by spot culture growth inhibition assay; format: functional; settings: H37Rv ATCC 27294, 336 h
# [9] = tested on: Mycobacterium tuberculosis; experiment: Inhibition of Mycobacterium tuberculosis MurD at 100 uM relative to control
# [10] = tested on: Mycobacterium tuberculosis; experiment: Inhibition of Mycobacterium tuberculosis MurE at 100 uM relative to control
# [11] = tested on: Mycobacterium tuberculosis; experiment: Inhibition of Mycobacterium tuberculosis MurF at 100 uM relative to control
# [12] = tested on: Mycobacterium tuberculosis; experiment: Inhibition of Mycobacterium tuberculosis MurC at 100 uM relative to control
# [13] = Inhibition of Mycobacterium tuberculosis MurE expressed in Escherichia coli BL21(DE3) cells by phosphate release based colorimetric assay
# [14] = tested on: RAW264.7; experiment: Cytotoxicity against mouse RAW264.7 cells assessed as cell growth inhibition; format: functional, cell-based
# [15] = tested on: Mycobacterium tuberculosis; experiment: Antitubercular activity against Mycobacterium tuberculosis H37Rv ATCC 9360 assessed as bacterial growth inhibition incubated for 2 weeks by spot culture growth inhibition assay; format: functional; settings: H37Rv ATCC 9360, 336 h
# [16] = Inhibition of Mycobacterium tuberculosis MurE using UDPMurNAc-L-Ala-D-Glu as substrate incubated for 30 mins by phosphate release based colorimetric assay
# [17] = tested on: Mycobacterium tuberculosis; experiment: (§1) Inhibition of N-terminal His-tagged Mycobacterium tuberculosis MurB expressed in Escherichia coli BL21 (DE3) cells using UDP-GlcNAc as initial substrate pretreated with compound for 15 mins followed by substrate addition measured after 30 mins in presence of ATP by phosphate release based assay relative to control; settings: time 45.0 min
# [18] = tested on: Mycobacterium tuberculosis; experiment: as §1, with “MurA” for “MurB”; settings: time 45.0 min
# [19] = tested on: Mycobacterium tuberculosis; experiment: as §1, with “MurC” for “MurB”; settings: time 45.0 min
# [20] = tested on: Mycobacterium tuberculosis; experiment: as §1, with “of” for “of N-terminal His-tagged”, “MBP tagged MurD” for “MurB”, “Rosetta-gami” for “BL21”; settings: time 45.0 min
# [21] = as §1, with “MurE” for “MurB”
# [22] = as §1, with “of” for “of N-terminal His-tagged”, “MBP tagged MurF” for “MurB”, “Rosetta-gami” for “BL21”
structure (smiles),measurement,setting,value
CCCCCCCC/C=C/C1CC(=O)c2ccccc2N1C (configuration not stated),IC50,[1],24 µg/mL
same,selectivity ratio,[2],1
same,IC50,[3],70 µM
same,IC50,[4],207 µM
same,MIC,[5],84 µM
CCCCCCCCCCC/C=C/C1CC(=O)c2ccccc2N1C (configuration not stated),IC50,[1],24 µg/mL
same,selectivity ratio,[2],1
same,IC50,[3],52 µM
same,IC50,[4],140 µM
same,MIC,[5],58.9 µM
COc1c(O)c2c3c(c1OC)CCN[C@H]3Cc1cc3c(cc1-2)OCO3 [listing 1 of 2 here],MIC,[6],64 µg/mL
same,IC50,[1],62 µg/mL
same,Selectivity Index,[2],0.97
same,IC50,[3],67 µM and < 100 µM
Oc1ccc(I)c2c1C(Cc1cccc3c1OCO3)NCC2 (configuration not stated),IC50,[7],< 111 µM
same,MIC,[8],71 µM
CCCCCCCC/C=C\CCCCC1CC(=O)c2ccccc2N1C (configuration not stated),IC50,[1],24 µg/mL
same,selectivity ratio,[2],1
same,IC50,[3],36 µM
same,IC50,[4],95 µM
same,MIC,[5],28.3 µM
CC(=O)N[C@H]1[C@H](OCc2cnnn2C[C@H]2O[C@@H](n3ccc(=O)[nH]c3=O)[C@H](O)[C@@H]2O)O[C@H](Cn2cc(C(N)=O)nn2)[C@@H](O)[C@@H]1O,inhibition,[9],23%
same,inhibition,[10],6.1%
same,inhibition,[11],41.8%
same,inhibition,[12],12.1%
CCCCCCCCCC/C=C/C1CC(=O)c2ccccc2N1C (configuration not stated),IC50,[1],24 µg/mL
same,selectivity ratio,[2],1
same,IC50,[3],72 µM
same,IC50,[4],187 µM
same,MIC,[5],30.7 µM
COc1ccc(Br)c2c1C(c1cccc3c1OCO3)NCC2 (configuration not stated),IC50,[7],165 µM
same,MIC,[8],106 µM
CC(=O)N[C@H]1[C@H](OCc2cn(C[C@@H]3O[C@H](n4ccc(=O)[nH]c4=O)[C@@H](O)[C@H]3O)nn2)O[C@H](Cn2cc(CO[C@@H]3O[C@H](CO)[C@@H](O)[C@H](O)[C@H]3NC(C)=O)nn2)[C@@H](O)[C@@H]1O,inhibition,[9],5.2%
same,inhibition,[10],12.5%
same,inhibition,[11],48.9%
same,inhibition,[12],1%
Oc1ccc(Br)c2c1C(Cc1cccc3c1OCO3)NCC2 (configuration not stated),IC50,[7],< 111 µM
CCCCCCCCCC#CCC1CC(=O)c2ccccc2N1CCCC (configuration not stated),IC50,[13],235 µM
NNC(=O)c1ccncc1 [ISONIAZID],IC50,[3],> 1000 µM
same,IC50,[7],> 1000 µM
COc1c(O)c2c3c(c1OC)CCNC3Cc1cc3c(cc1-2)OCO3 (configuration not stated),IC50,[7],820 µM
same,MIC,[8],84 µM
same,IC50,[14],352 µM
CCCCCCCCCCCC#CCC1CC(=O)c2ccccc2N1CCCC (configuration not stated),IC50,[13],200 µM
C=CC(C)(C)C1C(=O)CC(c2ccccc2)OC1OC (configuration not stated),MIC,[15],75 µg/mL
same,IC50,[16],320 µM
COc1c(O)c2c3c(c1OC)CCN[C@H]3Cc1cc3c(cc1-2)OCO3 [listing 2 of 2 here],inhibition,[17],> 100%
same,inhibition,[18],75%
same,inhibition,[19],66%
same,inhibition,[20],88%
COc1c(O)c2c3c(c1OC)CCN[C@H]3Cc1cc3c(cc1-2)OCO3.Cl,MIC,[6],4 µg/mL
same,IC50,[1],47 µg/mL
same,Selectivity Index,[2],12
same,IC50,[3],57 µM
same,IC50,[21],61.6 µM
same,IC50,[22],45.4 µM
COC(=O)N1CCc2c(OC)c(OC)c(O)c3c2[C@@H]1Cc1cc2c(cc1-3)OCO2,MIC,[6],128 µg/mL
same,IC50,[1],67 µg/mL
same,selectivity ratio,[2],0.52
same,IC50,[3],75 µM and < 100 µM
CCCCCCCCC/C=C\CCCC1CC(=O)c2ccccc2N1C (configuration not stated),IC50,[1],24 µg/mL
same,selectivity ratio,[2],1
same,IC50,[3],52 µM
same,IC50,[4],159 µM
same,inhibition,[17],> 100%
same,inhibition,[18],> 100%
same,inhibition,[19],73%
same,inhibition,[20],85%
same,IC50,[21],17 µM
same,IC50,[22],25.8 µM
same,MIC,[5],70.7 µM
Oc1ccc(Br)c2c1C(c1cccc3c1OCO3)NCC2 (configuration not stated),IC50,[7],< 111 µM
